This is an account of results in ChEMBL document CHEMBL5661943, “ASAP - In vitro antiviral effect” (2024).

As a reminder, the EC50 is the midpoint of the concentration-response curve. The term EC90 denotes the point of the concentration-response curve where the effect stands at 90%.

Experiment [1] has as its system dengue virus type 2. Nature of the experiment: Functional immunofluorescence assay to measure dose dependent changes in antiviral-drug inhibitory efficacy against Dengue virus type 2 Thailand/16681/84 in Vero E6/TMPRSS2 cells (cotreated with P-gp inhibitor, Elacridar). Cells are treated with antiviral candidates that are serially diluted, following infection, cells are fixed. EC50 is reported via analysis of immunofluorescence staining. The assay has been performed by Icahn School of Medicine at Mount Sinai. The experiment is classed as organism-based, Chlorocebus sabaeus, VeroE6/TMPRSS2.

Experiment [2] relates to dengue virus type 2. Nature of the experiment: Functional assay to measure dose dependent changes in antiviral-drug inhibitory efficacy against Dengue virus type 2 New Guinea C in Vero E6 miRFP670 cells. Cells are treated with antiviral candidates that are serially diluted, following infection, cells are fixed. EC50 is reported via analysis of fluorescence intensity using high-content imager. The assay has been performed by KU Leuven. The experiment is classed as organism-based, Chlorocebus sabaeus.

Experiment [3] has as its system Zika virus. Nature of the experiment: Functional CPE-based assay to measure dose dependent changes in antiviral-drug inhibitory efficacy against Zika virus MR766 in Vero E6 miRFP670 cells. Cells are treated with antiviral candidates that are serially diluted. EC50 is reported via analysis of MTS assay as a readout of CPE. The assay has been performed by KU Leuven. The class given is organism-based, Chlorocebus sabaeus, Vero C1008. Background: Tetrazolium dyes change colour on reduction, which living cells bring about.

Experiment [4] has as its system dengue virus type 2. Nature of the experiment: Functional assay to measure dose dependent changes in antiviral-drug inhibitory efficacy against Dengue virus type 2 New Guinea C in Vero E6 miRFP670 cells (cotreated with P-gp inhibitor, CP100356). Cells are treated with antiviral candidates that are serially diluted, following infection, cells are fixed. EC50 is reported via analysis of fluorescence intensity using high-content imager. The …. The class given is organism-based, Chlorocebus sabaeus, Vero C1008.

Experiment [5] concerns Zika virus. Nature of the experiment: EC50 is reported via analysis of immunofluorescence staining. The assay has been performed by Icahn School of Medicine at Mount Sinai. The class given is functional, organism-based, Chlorocebus sabaeus, VeroE6/TMPRSS2.
Experiment [6] has as its system Zika virus. Nature of the experiment: Functional CPE-based assay to measure dose dependent changes in antiviral-drug inhibitory efficacy against Zika virus MR766 in Vero E6 miRFP670 cells (cotreated with P-gp inhibitor, CP100356). Cells are treated with antiviral candidates that are serially diluted. EC50 is reported via analysis of MTS assay as a readout of CPE. The assay has been performed by KU Leuven. The class given is organism-based, Chlorocebus sabaeus, Vero C1008. Conditions: for EC90: Baseline response 0 %, Maximum response 100 %, P-gp inhibitor CP100356.

The test system of experiment [7] is Middle East respiratory syndrome-related coronavirus. Nature of the experiment: microbe, parasite or virus in culture. The experiment is classed as functional, organism-based, Chlorocebus sabaeus. To be noted: VeroE6/TMPRSS2.
Experiment [8] has as its system dengue virus type 2. In words: Functional CPE-based assay to measure dose dependent changes in antiviral-drug inhibitory efficacy against Dengue virus type 2 New Guinea C in Huh7 cells. Cells are treated with antiviral candidates that are serially diluted. EC50 is reported via analysis of MTT/MTS assay as a readout of CPE. The assay has been performed by National Institute of Allergy and Infectious Diseases. The experiment is classed as organism-based, Homo sapiens. To be noted: Huh-7.

Experiment [9] relates to dengue virus type 2. Nature of the experiment: Functional immunofluorescence assay to measure dose dependent changes in antiviral-drug inhibitory efficacy against Dengue virus type 2 Thailand/16681/84 in Vero E6/TMPRSS2 cells. Cells are treated with antiviral candidates that are serially diluted, following infection, cells are fixed. EC50 is reported via analysis of immunofluorescence staining. The assay has been performed by Icahn School of Medicine at Mount Sinai. Conditions: for EC50: VeroE6/TMPRSS2; for EC90: VeroE6/TMPRSS2, Baseline response 0 %, Maximum response 100 %. The experiment is classed as organism-based, Chlorocebus sabaeus.

The subject of experiment [10] is Zika virus. In words: Functional immunofluorescence assay to measure dose dependent changes in antiviral-drug inhibitory efficacy against Zika virus PRVABC59 in Vero E6/TMPRSS2 cells. Cells are treated with antiviral candidates that are serially diluted, following infection, cells are fixed. EC50 is reported via analysis of immunofluorescence staining. The assay has been performed by Icahn School of Medicine at Mount Sinai. The experiment is classed as organism-based, Chlorocebus sabaeus. Conditions: for EC50: VeroE6/TMPRSS2.

Where “and” joins values, the source holds several entries; their conditions need not be identical. Identical values can stand only once.

Consider `O=C(Nc1ccc2c(c1)CNC2)c1cc(Cl)cc2[nH]ncc12`, for which the EC50 in the experiment on dengue virus type 2 [1] (Dengue virus, VeroE6/TMPRSS2) is more than 50 µM; with dengue virus type 2 [2] (Vero C1008), more than 50 µM; in the experiment on Zika virus [3] (vero c1008) it was 34 µM and > 50 µM and 11.6 µM; with dengue virus type 2 [4] (Dengue virus, Vero C1008) it was more than 50 µM; in the experiment with Zika virus [5] (Zika virus, VeroE6/TMPRSS2), 12.7 µM; with Zika virus [6] (Zika virus, Vero C1008), 4.57 µM. Moreover, the EC50 with Zika virus [6] (vero c1008) worked out at 3.09 µM. For the same compound, the EC90 in the experiment with dengue virus type 2 [1] (Dengue virus, VeroE6/TMPRSS2, Maximum measured 202.528 %, Minimum measured 74.934 %, P-gp concentration 2 uM, P-gp inhibitor Elacidar) was more than 50 µM; in the experiment with dengue virus type 2 [2] (Vero C1008, Baseline response 0 %, Hill slope -0.996, Maximum measured 1.395 %, Maximum response 100 %, Minimum measured -3.373 %, R squared 0.016), more than 50 µM; in the experiment on Zika virus [3] (Zika virus, Vero C1008, Baseline response 0 %, Hill slope 1.599, Maximum measured 39.692 %, Maximum response 100 %, Minimum measured -0.234 %, R squared 0.961) it was more than 50 µM; in the experiment with Zika virus [3] (Zika virus, Vero C1008, Baseline response 0 %, Hill slope 4.496, Maximum measured 86.5 %, Maximum response 100 %, Minimum measured 2.921 %, R squared 0.876), more than 50 µM; with Zika virus [3] (Zika virus, Vero C1008, Baseline response 0 %, EC90 CI (lower) 23.876 uM, EC90 CI (upper) 46.036 uM, Hill slope 2.096, Maximum measured 107.811 %, Maximum response 100 %, Minimum measured 2.258 %, R squared 0.969), 33.1 µM; in the experiment with dengue virus type 2 [4] (Dengue virus, Vero C1008, Maximum measured 2.237 %, Minimum measured -2.116 %, P-gp concentration 100 nM, P-gp inhibitor CP100356), more than 50 µM. In addition, the 90% effect concentration (EC90) in the experiment with dengue virus type 2 [4] (Dengue virus, Vero C1008, Maximum measured 108.122 %, Minimum measured 103.322 %, P-gp concentration 500 nM, P-gp inhibitor CP100356) is more than 50 µM; in the experiment with dengue virus type 2 [4] (Dengue virus, Vero C1008, Maximum measured 122.049 %, Minimum measured 106.43 %, P-gp concentration 500 nM, P-gp inhibitor CP100356), more than 50 µM; with Zika virus [5] (Zika virus, VeroE6/TMPRSS2, Baseline response 0 %, Hill slope -1.535, Maximum measured 150.297 %, Maximum response 100 %, Minimum measured 39.396 %, P-gp concentration 2 uM, R squared 0.523, P-gp inhibitor Elacidar), more than 16.7 µM; in the experiment with Zika virus [6] (EC90 CI (lower) 3.61 uM, EC90 CI (upper) 15.25 uM, Hill slope 2.511, Maximum measured 126.79 %, Minimum measured 6.324 %, P-gp concentration 500 nM, R squared 0.896), 7.42 µM; in the experiment on Zika virus [6] (Zika virus, Vero C1008, EC90 CI (lower) 7.143 uM, EC90 CI (upper) 23.592 uM, Hill slope 2.106, Maximum measured 121.753 %, Minimum measured 3.066 %, P-gp concentration 100 nM, R squared 0.93), 13 µM.

As for `C=CC[C@H](Nc1cccc(-c2nn[nH]n2)c1)c1cc(Cl)cc2[nH]ncc12`, in [7], a half-maximal effect (EC50) was put at 0.988 µM and the EC90 amounted to 2.78 µM.

Consider `CC(C)CNC(=O)c1cc(Cl)c(F)cc1NS(=O)(=O)c1ccc(Oc2ccccc2Cl)cc1`, for which the EC50 is more than 3.1 µM with dengue virus type 2 [8]; 0.193 µM in the experiment with dengue virus type 2 [9]; more than 50 µM in the experiment on Zika virus [3] (Zika virus, Vero C1008); more than 50 µM in the experiment with Zika virus [10]; 5.32 µM in the experiment with dengue virus type 2 [4] (Dengue virus, Vero C1008); 5.64 µM in the experiment with dengue virus type 2 [4] (vero c1008). The EC50 was more than 16.7 µM in the experiment on Zika virus [5] (Zika virus, VeroE6/TMPRSS2) and 27.9 µM in the experiment with Zika virus [5] (veroe6/tmprss2). The 90% effect concentration (EC90) with dengue virus type 2 [1] (Dengue virus, VeroE6/TMPRSS2) is 1.89 µM; in the experiment on dengue virus type 2 [1] (Dengue virus, VeroE6/TMPRSS2, Maximum measured 155.684 %, Minimum measured 125.095 %, P-gp concentration 2 uM, P-gp inhibitor Elacidar) it was more than 5.56 µM; with dengue virus type 2 [9] (Hill slope -0.469, Maximum measured 101.396 %, Minimum measured 33.359 %, R squared 0.321) it was more than 1.85 µM; in the experiment on Zika virus [3] (Zika virus, Vero C1008, Baseline response 0 %, Hill slope -1.049, Maximum measured 4.723 %, Maximum response 100 %, Minimum measured -5.364 %, R squared 0.235), more than 50 µM; in the experiment with Zika virus [3] (Zika virus, Vero C1008, Maximum measured 0.142 %, Minimum measured -3.427 %) it was more than 50 µM; with Zika virus [3] (Zika virus, Vero C1008, Maximum measured 0.689 %, Minimum measured -11.388 %), more than 50 µM. The EC90 is more than 50 µM in the experiment on Zika virus [10] (VeroE6/TMPRSS2, Maximum measured 624.218 %, Minimum measured 63.552 %); 5.99 µM in the experiment with dengue virus type 2 [4] (Baseline response 0 %, Hill slope -36.406, Maximum measured 110.21 %, Maximum response 100 %, Minimum measured 0.136 %, P-gp concentration 500 nM, R squared 0.986, P-gp inhibitor CP100356); 5.85 µM in the experiment with dengue virus type 2 [4] (Dengue virus, Vero C1008); more than 50 µM in the experiment on Zika virus [5] (Baseline response 0 %, Hill slope -1.279, Maximum measured 136.576 %, Maximum response 60 %, Minimum measured 13.183 %, P-gp concentration 2 uM, R squared 0.138, P-gp inhibitor Elacidar); more than 16.7 µM in the experiment with Zika virus [5] (Baseline response 0 %, Hill slope -13.406, Maximum measured 146.245 %, Maximum response 100 %, Minimum measured 54.335 %, P-gp concentration 2 uM, R squared 0.12, P-gp inhibitor Elacidar).

Regarding `CC(C)CNC(=O)c1cc(Cl)ccc1NS(=O)(=O)c1ccc(Oc2ccccc2Cl)cc1`, the EC50 is more than 6.5 µM in the experiment on dengue virus type 2 [8]; 0.569 µM with dengue virus type 2 [9]; more than 50 µM in the experiment on Zika virus [3] (Zika virus, Vero C1008); 4.4 µM in the experiment with Zika virus [10]; 5.64 µM in the experiment on dengue virus type 2 [4] (Dengue virus, Vero C1008); > 3.33 µM and 19.2 µM and 29.1 µM in the experiment with Zika virus [5] (veroe6/tmprss2). For the same compound, the EC90 in the experiment with dengue virus type 2 [1] (Baseline response 0 %, EC90 CI (lower) 0.741 uM, EC90 CI (upper) 4.671 uM, Hill slope -3.39, Maximum measured 117.923 %, Maximum response 100 %, Minimum measured 16.6 %, P-gp concentration 2 uM, R squared 0.718, P-gp inhibitor Elacidar) is 6.8 µM; with dengue virus type 2 [1] (Baseline response 0 %, EC90 CI (lower) […] uM, EC90 CI (upper) 0.019 uM, Hill slope -1.255, Maximum measured 118.581 %, Maximum response 100 %, Minimum measured 5.952 %, P-gp concentration 2 uM, R squared 0.745, P-gp inhibitor Elacidar), 0.18 µM; in the experiment with dengue virus type 2 [1] (Dengue virus, VeroE6/TMPRSS2, Maximum measured 165.458 %, Minimum measured 88.019 %, P-gp concentration 2 uM, P-gp inhibitor Elacidar) it was more than 16.7 µM; in the experiment with dengue virus type 2 [9] (Hill slope -0.624, Maximum measured 99.166 %, Minimum measured 12.707 %, R squared 0.743) it was more than 16.7 µM; with Zika virus [3] (Zika virus, Vero C1008, Maximum measured -0.388 %, Minimum measured -2.415 %), more than 50 µM; in the experiment on Zika virus [10] (VeroE6/TMPRSS2, Baseline response 0 %, Hill slope -0.566, Maximum measured 86.366 %, Maximum response 100 %, Minimum measured 3.533 %, R squared 0.722), more than 50 µM. In addition, the EC90 in the experiment with dengue virus type 2 [4] (Dengue virus, Vero C1008, Baseline response 0 %, Hill slope -37.142, Maximum measured 110.023 %, Maximum response 100 %, Minimum measured 0.325 %, P-gp concentration 500 nM, R squared 0.985, P-gp inhibitor CP100356) was 5.99 µM; in the experiment on Zika virus [5] (Baseline response 0 %, EC90 CI (lower) 6.158 uM, EC90 CI (upper) 70.47 uM, Hill slope -6.578, Maximum measured 126.059 %, Maximum response 100 %, Minimum measured 2.779 %, P-gp concentration 2 uM, R squared 0.75, P-gp inhibitor Elacidar), 40.6 µM; in the experiment with Zika virus [5] (Zika virus, VeroE6/TMPRSS2) it was 32.4 µM; with Zika virus [5] (Zika virus, VeroE6/TMPRSS2, Maximum measured 119.408 %, Minimum measured 55.418 %, P-gp concentration 2 uM, P-gp inhibitor Elacidar), more than 3.33 µM.
